Measurements as given in patent US20240309014A1, “MACROCYCLIC COMPOUNDS AND USES THEREOF” (President and Fellows of Harvard College, priority 2017, published 2024).

Columns and labels:
[1] = tested on: FaDu-Luc subcutaneous xenograft; test: FaDu s.c. xenograft model in combination with radiation; assay type: in vivo, nude mice
Description: Luciferase-transduced FaDu-Luc cells were established by retrovirus-mediated gene transfer. […]. Then, helper-free recombinant retroviruses were produced by transfecting the above retroviral expression vector together with pGP and pE-Ampho plasmids (Takara Bio; Shiga, Japan), into 293T cells (ATCC; Manassas, USA). Next, FaDu cells were infected with the recombinant retroviruses, and were cultured for two weeks in the presence of puromycin (2 μg/mL). The infected cells were selected from a polyclonal proliferative population of the culture.
A luciferase-transduced human SCCHN cell line FaDu-Luc, which had been cultured in an RPMI-1640 medium containing 10% FBS, and penicillin and streptomycin, was adjusted to a concentration of 5×10^7 cells/mL with Hank's Balanced Salt Solution to prepare a cell suspension. […] Thirteen days after the cell inoculation, the tumor volume was analyzed using bioluminescence signal from FaDu-Luc cells. […] The bioluminescence signal was monitored using the IVIS […] series (PerkinElmer, Waltham, MA), consisting of a highly sensitive, cooled chargecoupled device camera. […] Data were analyzed using total photon flux emission (photons/second) in the ROIs. The total photon flux emission was calculated in accordance with the following calculation formulae: […]

[2] = tested on: Tenascin-C and EDA-fibronectin; test: Effects on Tenascin-C and EDA-fibronectin in the FaDu subcutaneous model (FIG. 15); assay type: in vivo, nude mice; details: Compound (1) 180 μg/kg + cetuximab 10 mg/kg on Day 1, tumors five days after, vs control tumors
Description: A human squamous cell carcinoma of the head and neck (SCCHN) cell line FaDu, which had been cultured in an RPMI-1640 medium containing 10% FBS, and penicillin-streptomycin (culture medium), was adjusted to a concentration of 5×10^7 cells/mL with culture medium to prepare a cell suspension. The cell suspension was inoculated in a volume of 100 μL into a subcutaneous part of a right flank of nude mice, 6 weeks of ages (CAnN.Cg-Foxnlnu/CrlCrlj, female, Charles River Laboratories Japan, Inc.). Ten days after cell inoculation, the mice were grouped such that averages of the tumor volumes were substantially equal among the groups. The experiment was conducted on groups each consisting of 5 mice. Compound (1) was dissolved in DMSO and a solution was stored in the freezer before use. […] Five days after the single administration, tumor samples were collected and fixed with IHC Zinc Fixative (BD Pharmingen) at 4° C. for 24 hr. Paraffin-embedded tissues were sectioned (3 μm), mounted on positively charged slides, and air-dried. Sections were deparaffinized, conditioned and the antigens were retrieved using microwave with 1 mM EDTA at pH 6.0 for Tenascin-C. For EDA-fibronectin, the antigens retrieval procedure was not necessary. […]

[3] = tested on: KPL-4 subcutaneous xenograft; test: KPL-4 subcutaneous xenograft model in combination with trastuzumab; assay type: in vivo, nude mice
Description: A human HER-2 positive breast cancer cell line KPL-4, which had been cultured in an RPMI-1640 medium containing 10% FBS, and penicillin and streptomycin, was adjusted to a concentration of 1×10^8 cells/mL with Hank's Balanced Salt Solution to prepare a cell suspension. The cell suspension was inoculated in a volume of 100 μL into a subcutaneous part of a right flank of nude mice, 7 weeks of ages (CAnN.Cg-Foxnlnu/CrlCrlj, female, Charles River Laboratories Japan, Inc.). Sixteen days after the cell inoculation, the shortest diameter and the longest diameter of a tumor in each mouse were measured by using an electronic digital caliper (Digimatic™ caliper, Mitutoyo Corporation), so as to calculate the volume of the tumor in accordance with the following calculation formulae: […]
On the basis of the volumes of tumors obtained on the first day of administration, the mice were grouped such that averages of the tumor volumes were substantially equal among the groups. The experiment was conducted on groups each consisting of 6 mice. Each test compound was dissolved in DMSO and a solution was stored at the freezer before use. Immediately before the administration, the stock solution was diluted in saline.

[4] = tested on: microtubule dynamics in U2OS-EB3-AG osteosarcoma cell line; test: Cell-based microtubule dynamics assay; details: 0.5 nM, around 60 minutes after addition
Description: A cell-based microtubule (MT) dynamics assay was conducted with the U2OS-EB3-AG osteosarcoma cell line, in which the fusion protein of EB3 (a microtubule plus end binding protein) and Azami-Green (EB3-AG) was stably expressed. U2OS-EB3-AG cells were culture in RPMI-1640 medium containing 10% FBS, and penicillin-streptomycin, at 37° C. in a humidified 5% C02 atmosphere. The MT dynamics in the live cells can be visualized as the movement of the comet-like structure of EB3-AG. U2OS-EB3-AG cells plated on glass-base culture plates (EZVIEW plate, AGC Techno Glass, Japan) were treated with Compound (1) at the indicated concentration and the microtubule dynamics were monitored by time-lapse imaging using fluorescent microscope with 60-fold magnification oil- immersed objective lens (BZ-X710, KEYENCE, Japan). Higher magnification views of the boxed areas were shown in inlets. When treated with Compound (1) at 0.5 nM (IC50 value for antiproliferative activity in U20S-EB3-AG cells), the comet-like structures became hard to observe at around 60 minutes after the addition of the compound.

SMILES: C=C1C[C@@H]2CC[C@@]34C[C@H]5O[C@H]6[C@@H](O3)[C@H]3O[C@H](CC[C@@H]3O[C@H]6C5O4)CC(=O)O[C@@H]3[C@@H](C)[C@@H]4O[C@@H]5C[C@]6(C[C@@H]7O[C@]8(C[C@H](C)[C@@H]9O[C@H](CN)[C@H](O)C[C@@H]9O8)C[C@H](C)[C@@H]7O6)O[C@@H]5C[C@@H]4O[C@H]3C[C@H]3O[C@@H](CC[C@@H]1O2)C[C@@H](C)C3=C (stereo in doubt) [Compound (1)]
- Tumor Regression (%) ([1]; 0.09 mg/kg i.v. day 1 and 8 + radiation 18 Gy day 4 and 11): 97%
- Tumor Regression (%) ([1]; 0.09 mg/kg i.v. day 1 and 8, without radiation): 0%
- expression levels of Tenascin-C and ED-A fibronectin [2]: reduced
- Tumor Regression (%) ([3]; 0.09 mg/kg i.v. + trastuzumab 10 mg/kg): 83%
- Tumor Regression (%) ([3]; 0.09 mg/kg i.v., without trastuzumab): 43%
- Tumor Regression (%) ([3]; 0.18 mg/kg i.v. + trastuzumab 10 mg/kg): 100%
- Tumor Regression (%) ([3]; 0.18 mg/kg i.v., without trastuzumab): 87%
- effect on microtubule dynamics (EB3-AG comet-like structures) [4]: suppress the MT dynamics
